This note sets out measurements from patent US6399614B1, “1-(N-phenylaminoalkyl)piperazine derivatives substituted at position 2 of the phenyl ring” (Recordati S.A. Chemical and Pharmaceutical Company, priority 1997, dated 2002).

Experiment [1] has as its target T1, pre-synaptic 5-HT1A receptor (Mus musculus, UniProt Q64264).
T1 construct: from tissue; host or cells: whole animal, male CD-1 mice
T1 sequence (Q64264 1-421): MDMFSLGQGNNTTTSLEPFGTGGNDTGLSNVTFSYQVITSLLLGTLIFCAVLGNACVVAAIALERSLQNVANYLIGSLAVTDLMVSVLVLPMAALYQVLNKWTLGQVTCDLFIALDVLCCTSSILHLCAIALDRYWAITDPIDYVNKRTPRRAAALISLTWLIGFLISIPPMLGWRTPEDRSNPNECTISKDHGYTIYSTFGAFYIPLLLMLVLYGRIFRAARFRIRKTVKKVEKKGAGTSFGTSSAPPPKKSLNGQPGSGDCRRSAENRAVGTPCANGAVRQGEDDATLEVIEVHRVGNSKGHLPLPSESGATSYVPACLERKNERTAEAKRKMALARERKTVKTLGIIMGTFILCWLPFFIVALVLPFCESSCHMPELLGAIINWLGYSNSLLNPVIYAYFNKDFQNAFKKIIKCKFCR
Kind of experiment: Antagonism of hypothermia induced by 8-OH-DPAT in mice (pre-synaptic antagonism). It is filed as in vivo. Conditions: for ED50: mouse, iv, read-out: Pre-synaptic 5-HT1A ID50, heading: Pre-synaptic 5-HT1A ID50, dose blocking 50% of hypothermia induced by 0.5 mg/kg s.c. 8-OH-DPAT in mice, compound i.v. On the procedure:
The antagonistic effect of the 5-HT1A receptor antagonists of the invention on hypothermia induced by 8-OH-DPAT was evaluated by the method of Moser (Moser, Eur.J.Pharmacol., 193:165, 1991) with minor modifications as described below. Male CD-1 mice (28-38 g) obtained from Charles River (Italy) were housed in a climate-controlled room (temperature 22±2 C.; humidity 55±15%) and maintained on a 12 h light/dark cycle with free access to food and water. On the day of experiment, mice were placed singly in clear plastic boxes under the same ambient conditions. Body temperature was measured by the insertion of a temperature probe (Termist TM-S, LSI) into the rectum to a depth of 2 cm. Rectal temperature was measured immediately prior to intravenous injection of the test compound. All animals then received 8-OH-DPAT (0.5 mg/kg s.c.) and their temperature was measured 30 min later. For each animal, temperature changes were calculated with respect to pretreatment values and the mean values were calculated for each treatment group. A linear regression equation was used in order to evaluate ID50 values, defined as the dose of antagonist needed to block 50% of the hypothermic effect induced by 0.5 mg/kg 8-OH-DPAT administered subcutaneously.

Experiment [2] deals with T2, 5-HT2A serotonergic receptors (Rattus norvegicus, UniProt P14842).
T2 construct: from tissue; host or cells: rat cerebral cortex membranes
Description: Radioreceptor binding, native 5-HT2A receptors, rat cerebral cortex ([3H]ketanserin). Conditions: Table 3A not given. Here is the method:
(§1) Binding studies on native α2 adrenergic receptors (Diop L. et al, J. Neurochem. 41, 710-715, 1983), and 5-HT2A serotonergic receptors (Craig A. and Kenneth J., Life Sci. 38, 117-127, 1986) were carried out in membranes of rat cerebral cortex. Male Sprague Dawley rats (200-300 g, SD Harlan/Nossan, Italy) were killed by cervical dislocation and cerebral cortexes were excised and immediately frozen in liquid nitrogen and stored at −70° C. until use. Tissues were homogenized (2×20 sec) in 50 volumes of cold 50 mM Tris-HCl buffer pH 7.4, using a Polytron homogenizer (speed 7). Homogenates were centrifuged at 49000×g for 10 min, resuspended in 50 volumes of the same buffer, incubated at 37° C. for 15 min and centrifuged and resuspended twice more. […] Non-specific binding was determined in the presence of 10 μM phentolamine (a2-adrenergic receptors) or 2 μM ketanserin (5-HT2A serotoninergic receptors). […] The filters are then washed with ice-cold buffer and the radioactivity retained on the filters was counted by liquid scintillation spectrometry.
(§2) The inhibition of specific binding of the radioligands by the tested drugs was analyzed to estimate the IC50 value by using the non-linear curve-fitting program Allfit (De Lean et al., Am. J. Physiol. 235, E97-E102, 1978). […]

For a further experiment, the system named is α2 adrenergic receptors. Description: Radioreceptor binding, native α2-adrenoceptors, rat cerebral cortex ([3H]rauwolscine). Conditions: Table 3A not given. On the procedure:
as §1, §2

T2 sequence (P14842 whole entry): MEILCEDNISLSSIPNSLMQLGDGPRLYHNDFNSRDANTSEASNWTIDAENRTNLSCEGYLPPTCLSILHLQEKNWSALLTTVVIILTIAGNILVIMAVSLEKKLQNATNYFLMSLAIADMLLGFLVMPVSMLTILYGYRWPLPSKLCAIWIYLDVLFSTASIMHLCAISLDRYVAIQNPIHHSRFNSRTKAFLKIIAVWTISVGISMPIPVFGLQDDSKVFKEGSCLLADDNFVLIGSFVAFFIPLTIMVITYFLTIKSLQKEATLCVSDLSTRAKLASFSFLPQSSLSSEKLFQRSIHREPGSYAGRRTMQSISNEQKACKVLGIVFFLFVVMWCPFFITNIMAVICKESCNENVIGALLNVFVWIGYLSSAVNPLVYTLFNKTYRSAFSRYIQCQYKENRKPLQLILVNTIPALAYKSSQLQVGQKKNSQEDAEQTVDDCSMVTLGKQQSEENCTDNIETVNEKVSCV

`COc1ccccc1N1CCN(CCN(C(=O)C2CCCCC2)c2ccccc2)CC1` [Compound A, 1-(N-phenyl-N-cyclohexylcarbonyl-2-aminoethyl)-4-(2-methoxyphenyl)piperazine, reference compound]: the “fold less active than compound of Example 2, pre-synaptic model” value in experiment [1] (hypothermia model in mice) was “at least 10 fold”. Besides, the ED50 in experiment [1] was found to be 0.221 mg/kg.
Take `COc1ccccc1N1CCN(CCN(C(=O)C2CCCCC2)c2ccccc2[N+](=O)[O-])CC1` [Example 2, 1-[N-(2-nitrophenyl)-N-cyclohexylcarbonyl-2-aminoethyl]-4-(2-methoxyphenyl) piperazine]: in experiment [2], the “selectivity for the 5-HT1A receptor versus the 5-HT2A” value is reported as “much more selective than compound A”. Also, the ED50 in experiment [1] amounted to 0.02 mg/kg. Moreover, the “selectivity for the 5-HT1A receptor versus the a2-adrenoceptors” value with α2 adrenergic receptors is “much more selective than compound A”.
